The values that follow come from publication PMC8878317, “Chemogenomics identifies acetyl-coenzyme A synthetase as a target for malaria treatment and prevention” (Cell Chemical Biology, 2022).

For assay [1], the target named is T1, PfAcAS T648M (Plasmodium falciparum, UniProt C6KTB4, T648M).
T1 sequence (C6KTB4 1-997 T648M): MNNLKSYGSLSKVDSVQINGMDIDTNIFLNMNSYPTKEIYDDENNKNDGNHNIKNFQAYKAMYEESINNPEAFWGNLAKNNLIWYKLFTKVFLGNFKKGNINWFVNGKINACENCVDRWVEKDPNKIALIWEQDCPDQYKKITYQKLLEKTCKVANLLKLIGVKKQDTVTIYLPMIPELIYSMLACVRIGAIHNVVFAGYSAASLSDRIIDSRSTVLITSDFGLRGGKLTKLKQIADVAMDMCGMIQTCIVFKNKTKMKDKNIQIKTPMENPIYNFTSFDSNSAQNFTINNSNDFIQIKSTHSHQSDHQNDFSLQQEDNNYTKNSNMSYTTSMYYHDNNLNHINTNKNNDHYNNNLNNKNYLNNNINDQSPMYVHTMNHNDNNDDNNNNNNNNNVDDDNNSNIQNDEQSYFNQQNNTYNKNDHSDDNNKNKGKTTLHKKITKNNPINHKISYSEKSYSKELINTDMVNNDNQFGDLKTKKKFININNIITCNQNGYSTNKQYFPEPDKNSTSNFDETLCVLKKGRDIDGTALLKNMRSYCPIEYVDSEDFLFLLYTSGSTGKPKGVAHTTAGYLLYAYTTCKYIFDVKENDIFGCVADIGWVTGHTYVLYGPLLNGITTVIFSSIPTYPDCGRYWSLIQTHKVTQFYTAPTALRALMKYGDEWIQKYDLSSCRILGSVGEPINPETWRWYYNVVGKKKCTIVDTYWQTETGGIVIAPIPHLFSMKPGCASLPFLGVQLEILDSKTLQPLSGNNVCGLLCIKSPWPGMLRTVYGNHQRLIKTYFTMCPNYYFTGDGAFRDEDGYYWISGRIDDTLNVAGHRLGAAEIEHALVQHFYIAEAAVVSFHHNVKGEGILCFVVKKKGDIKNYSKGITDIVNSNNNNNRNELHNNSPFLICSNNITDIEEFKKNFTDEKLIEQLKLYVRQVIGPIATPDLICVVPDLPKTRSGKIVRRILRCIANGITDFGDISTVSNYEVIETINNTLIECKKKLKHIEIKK
In words: EnzChek assay, recombinant PfAcAS T648M. Format: biochemical, P. falciparum. As for the experimental part:
Steady-state kinetic measurements were conducted at room temperature using a PheraStar plate reader (BMG). The first step of the reaction of PfAcAS, which produces inorganic pyrophosphate (PPi) that is converted to two molecules of inorganic phosphate using a pyrophosphatase enzyme, was continuously monitored using the EnzChek Phosphate Assay Kit, which gives an absorbance readout at 360 nm (Figure 4A) ([Webb, 1992]). […] By adding CoA, the reaction rapidly proceeds to the second step resulting in further release of pyrophosphate, making the EnzChek assay a suitable option to continuously monitor the activity of PfAcAS. Typical kinetic assays were carried out in clear, flat-bottom, polystyrene, 384-well plates (Greiner) in an 80 μL reaction volume containing 100 mM HEPES (pH7.4), 100 mM NaCl, 250 mM KCl, 50 mM MgCl2, 1 mM DTT, 0.004% Tween 20, 0.5 U/mL pyrophosphatase, 0.1 mM MESG, 0.5 U/mL PNP, 2 mM ATP, 2 mM acetate, 0.5 mM CoA and 5 nM recombinant PfAcAS WT or 10 nM recombinant PfAcAS A597V or T648M. Assays were performed by adding 40 μL of a 2-times concentrated substrate mixture including MESG to all wells, and the reactions started by adding 40 μL of a 2-times concentrated reaction mixture containing all other components. The reactions were carried out for 2 to 4 hr with absorbance readings at 360 nm every two to four minutes. Reaction rates were extracted from the linear phase of activity, usually using 10 to 20 points between times of 30 and 100 min of the reactions. Using a phosphate standard curve obtained under the same buffer conditions used for the PfAcAS reactions (Figure S5A), the rates were then converted to velocity per second, conversion of one nanomolar of phosphate, per nanomolar of enzyme, per second. The substrates Km values were determined by varying the concentration of one of the substrates at saturating concentration of the other two substrates. Steady-state data were fitted using the nonlinear, least-squares, curve-fitting programs of Sigma-Plot for Windows, version 14.0. Individual saturation curves were fit to Equation 1(Equation 1) v=VS/K+S where V is the maximal velocity, S is the substrate concentration and K is the Michaelis constant for the substrate (Km). Individual saturation curves displaying substrate inhibition were fit to Equation 2(Equation 2) v=VS/K+S×(1+S/Ks) where Ks is the substrate inhibition constant.
To determine the steady-state inhibition parameters and patterns associated with both inhibitors, PfAcAS activity was studied in the presence of variable concentrations of one substrate, ATP, acetate or CoA, fixed saturating concentration of the other two substrates (acetate and CoA, ATP and CoA, or ATP and acetate) and several fixed concentrations of inhibitor. Assay ready plates containing different concentrations of inhibitor were prepared using an Echo 550 acoustic dispenser (Labcyte Inc.). The assays were carried out as described in the previous section. […] For better comparison between both inhibitors and proteins, the ymin was fixed to zero and the ymax to 100. Inhibition data showing linear, competitive patterns in double-reciprocal plots were fit to Equation 4(Equation 4) v=VS/K(1+I/Ki)+S where Ki is the dissociation constant for the enzyme-inhibitor complex. Inhibition data showing linear, mixed inhibition patterns in double-reciprocal plots were fit to Equation 5(Equation 5) v=VS/K(1+I/Kis)+S(1+I/Kii) where Kis is the dissociation constant for the free enzyme-inhibitor complex and Kii is the dissociation constant for the enzyme-substrate-inhibitor complex. Inhibition data showing linear, uncompetitive patterns in double-reciprocal plots were fit to Equation 6(Equation 6) v=VS/K+S(1+I/Ki)

Assay [2] has as its system liver-stage P. berghei parasites (Pbluc). In words: Liver-stage P. berghei assay (Pbluc). The following applies: Plasmodium berghei. The format is cell-based.

Each structure is given as a SMILES string.

Take `CCN(CC)S(=O)(=O)c1ccc(Cl)c(C(=O)Nc2ccc3nc(C)sc3c2)c1` [MMV019721]: in assay [1], the “Hill, AcAS T648M” value turned out to be 0.81 ± 0.12 and the 50% inhibitory concentration (IC50) (usually the concentration that gives 50% inhibition) amounted to 18000 ± 3200 nM. The concentration for a half-maximal effect (EC50) (usually the concentration giving half of the maximal effect) in assay [2] is 2100 nM.

With `O=C(NNC(=O)c1csnn1)c1ccc(Cl)cc1` [MMV084978], the IC50 in assay [1] is > 100000 nM. This molecule gave an EC50 in assay [2] of 520 ± 210 nM.
